In US20210337817A1, “COMPOUNDS AND FORMULATIONS FOR PROTECTIVE COATINGS” (Apeel Technology, Inc., priority 2018, published 2021):
“Also recorded” adds a separate entry of the source.

Tests used:
[1] = Contact angle on paraffin wax, direct or primed surface; assay type: physicochemical; conditions: paraffin wax primed with CA-1G 3 mg/mL in water and dried, then pure water drops
Protocol: For bar 1601, the solvent was pure water. […] The mixture corresponding to bar 1603 was the same as that of bar 1602 but also included 3 mg/mL of CA-1G. For bar 1604, a mixture of CA-1G at a concentration of 3 mg/mL in water was first deposited on the surface of the paraffin wax and then allowed to dry in order to prime the surface. Afterward, the contact angle of water on the primed surface was determined. For bar 1605, a mixture of CA-1G at a concentration of 3 mg/mL in water was first deposited on the surface of the paraffin wax and then allowed to dry in order to prime the surface. Afterward, the contact angle of a mixture of SA-1G and SA-Na at a mass ratio of 95:5 dispersed in water at a concentration of 45 mg/mL on the primed surface was determined.

[2] = tested on: finger limes; assay: Average daily mass loss rate of coated finger limes; conditions: coating agent 10 mg/mL in ethanol, 23-27° C., humidity 40-55%, untreated 5.3%
Text: As used herein, the “mass loss rate” refers to the rate at which the product loses mass (e.g. by releasing water and other volatile compounds). The mass loss rate is typically expressed as a percentage of the original mass per unit time (e.g. percent per day).
FIG. 1 is a graph showing average daily mass loss rates for finger limes coated with various mixtures of PA-2G and PA-1G measured over the course of several days. Each bar in the graph represents average daily mass loss rates for a group of 24 finger limes. The finger limes corresponding to bar 102 were untreated. The finger limes corresponding to bar 104 were coated with a coating agent that was substantially pure PA-1G. The finger limes corresponding to bar 106 were coated with a coating agent that was about 75% PA-1G and 25% PA-2G by mass. The finger limes corresponding to bar 108 were coated with a coating agent that was about 50% PA-1G and 50% PA-2G by mass. The finger limes corresponding to bar 110 were coated with a coating agent that was about 25% PA-1G and 75% PA-2G by mass. The finger limes corresponding to bar 112 were coated with a coating agent that was substantially pure PA-2G. The coating agents were each dissolved in ethanol at a concentration of 10 mg/mL to form solutions, and the solutions were applied to the surface of the corresponding finger limes to form the coatings. […]

[3] = tested on: avocados; assay: Skin damage of treated avocados (photograph); conditions: 5 mg/mL in water, no long chain fatty acid esters/salts (FIG. 5)
Text: Medium chain fatty acids (e.g., having a carbon chain length in a range of 7 to 13) and/or salts or esters thereof can also be used as coating agents to form coatings over produce or other plant matter or agricultural products using the methods described above.
[…] […] Prior to treatment, the avocado skin was virtually entirely green (not shown).

| SMILES | average daily mass loss rate [2] [% per day] | also measured |
| --- | --- | --- |
| CCCCCCCCCC(=O)OCC(O)CO (stereo not shown) [CA-1G, 2,3-dihydroxypropan-1-yl decanoate] |  | average contact angle of water on primed surface [1]: 24 ° |
| CCCCCCCCCCCCCCCC(=O)OC(CO)CO [PA-2G, 1,3-dihydroxypropan-2-yl palmitate] | 3.7 |  |
| CCCCCCCCCCCCCCCC(=O)OCC(O)CO (stereo not shown) [PA-1G, 2,3-dihydroxypropan-1-yl palmitate] | 4.3 |  |
| CCCCCCCCCCC(=O)OCC(O)CO (stereo not shown) [UA-1G, 2,3-dihydroxypropan-1-yl undecanoate] |  | skin damage of avocados after treatment [3]: high density of black discolored regions; also recorded: extensive skin damage |
